Experimental data taken from patent US9901592B2 (priority 2008, dated 2018).
Values after ≈ are worked out from the molar mass of the structure shown. Read-outs that look alike come from different tables or passages of the source.

Key:
S. pneumoniae [1] = assay: microbe, parasite or virus in culture; format: cell-based; conditions: for MIC90: Streptococcus pneumoniae
S. pyogenes [2] = format: cell-based; conditions: for Mutant selection frequencies: S. pyogenes
M. fermentans = format: cell-based; conditions: M. fermentans (15 isolates); for MIC50 / MIC90: Mycoplasmopsis fermentans
S. pneumoniae [3] = format: cell-based
S. pneumoniae [4] = assay: mouse subcutaneous abscess model; format: in vivo; conditions: for average log10 CFU/gram of abscess: S. pneumoniae 1629, 10 mg/Kg PO
Procedure: Example. Efficacy was evaluated in several infection models. […] PD50s were determined 24 hr post infection. CEM-101 was further evaluated in a subcutaneous abscess mouse model against S. pneumoniae. CD-1 female mice were infected via SC injection of bacteria mixed with cyclodextran beads. Two hr post infection, mice received a single oral dose of CEM 101 or control agents. At 48 hr post dose, mice were euthanized, abscesses aseptically removed and bacteria enumerated. CFU per abscess was determined and compared to the untreated control. […] 24 hr post treatment, the thighs were processed and CFU/gram of thigh determined.
Example. Mouse Subcutaneous Abscess. Bacteria were prepared from an overnight plate culture by re-suspending in saline and adjusting the suspension to a 0.1 OD at 625 nm of a 1:10 dilution. The adjusted bacterial suspension was mixed 1:2 with cyclodextran beads prepared as per package instructions. The right flanks of the mice were shaven and injected subcutaneously with 0.2 ml of the bacterial inoculum. Two hours post infection mice were treated via oral gavage with either test article or control drug. 48 hours post infection, mice were euthanized, abscesses aseptically removed, homogenized, serially diluted and plated on bacterial growth agar. After overnight incubation, colonies were counted and CFUs/gram of abscess were determined.
Example. The ability of CEM101 to reduce the microbial load in abscess infection model was also assessed against S. pneumoniae isolates.

N. meningitidis = assay: MIC, CLSI broth microdilution, invasive isolates; format: cell-based; conditions: for MIC / MIC50 / MIC90: Neisseria meningitidis, 62 N. meningitidis isolates
Procedure: Example. […] Colonization of the nasopharynx (NP) by NM can lead to invasive meningococcal disease. Chemoprophylaxis is used to eradicate NP colonization and prevent transmission to nonimmune contacts. […] 62 isolates (91.9% blood culture) of NM were collected from 29 medical centers in North and South America and Europe (1997-2008). […] Serological identification was performed for serogroups (SGs) B, C, Y and W135.

S. pneumoniae [5] = assay: MIC of the strains of the mouse systemic infection model; format: cell-based; conditions: Streptococcus pneumoniae
S. pneumoniae [6] = assay: neutropenic mouse thigh infection; format: in vivo; conditions: QD, PO
S. pyogenes [7] = assay: MIC of the strains of the mouse systemic infection model; format: cell-based; conditions: Streptococcus pyogenes
S. aureus = assay: mouse systemic infection model (PD50); format: in vivo
S. pyogenes [8] = format: cell-based; parameters: MIC: unit not given beside the values; conditions: for MIC50 / MIC90: Streptococcus pyogenes, Macr-R
U. parvum = assay: MIC testing in 10B broth (colour change); format: cell-based, Ureaplasma parvum; conditions: U. parvum (10 isolates)
[9] = strain 237 Macrolide-R [L4 mutation], 2 × MIC
[10] = strain 237 Macrolide-R [L4 mutation], 4 × MIC
[11] = strain 237 Macrolide-R [L4 mutation], 8 × MIC
[12] = strain 2094 Macrolide-R [erm(A)], 2 × MIC
[13] = strain 2094 Macrolide-R [erm(A)], 4 × MIC
[14] = strain 2094 Macrolide-R [erm(A)], 8 × MIC
[15] = strain 2132 Macrolide-S, 2 × MIC
[16] = strain 2132 Macrolide-S, 4 × MIC
[17] = strain 2132 Macrolide-S, 8 × MIC
[18] = strain 1077 Macrolide-S, 2 × MIC
[19] = strain 1077 Macrolide-S, 4 × MIC
[20] = strain 1077 Macrolide-S, 8 × MIC
[21] = strain 1635 Macrolide-R [erm(A)], 2 × MIC
[22] = strain 1635 Macrolide-R [erm(A)], 4 × MIC
[23] = strain 1635 Macrolide-R [erm(A)], 8 × MIC
[24] = strain 3665 Macrolide-R [mef(A)], 2 × MIC
[25] = strain 3665 Macrolide-R [mef(A)], 4 × MIC
[26] = strain 3665 Macrolide-R [mef(A)], 8 × MIC
[27] = strain 7127 Macrolide-S [S20N in L4, A105V in L22], 2 × MIC
[28] = strain 7127 Macrolide-S [S20N in L4, A105V in L22], 4 × MIC
[29] = strain 7127 Macrolide-S [S20N in L4, A105V in L22], 8 × MIC

CCC[C@@H]1C[C@@H](C(=O)N[C@@H]([C@H]2O[C@H](SC)[C@H](O)[C@@H](O)[C@H]2O)[C@H](C)Cl)N(C)C1 [CLN, clindamycin]
nonsusceptibility (S. pneumoniae [1]): 83.3%
MIC90 (S. pneumoniae [1]): > 16 µg/mL
single step mutation frequency (S. pyogenes [2]; [9]): <1.0 × 10^−10
single step mutation frequency (S. pyogenes [2]; [10]): <1.0 × 10^−10
single step mutation frequency (S. pyogenes [2]; [11]): <1.0 × 10^−10
single step mutation frequency (S. pyogenes [2]; strain 2011 Macrolide-R [mef(A)], 2 × MIC): <1.0 × 10^−10
single step mutation frequency (S. pyogenes [2]; strain 2011 Macrolide-R [mef(A)], 4 × MIC): <1.0 × 10^−10
single step mutation frequency (S. pyogenes [2]; strain 2011 Macrolide-R [mef(A)], 8 × MIC): <1.0 × 10^−10
single step mutation frequency (S. pyogenes [2]; [12]): 2.1 × 10^−7
single step mutation frequency (S. pyogenes [2]; [13]): 1.3 × 10^−7
single step mutation frequency (S. pyogenes [2]; [14]): 1.1 × 10^−7
single step mutation frequency (S. pyogenes [2]; [15]): <7.7 × 10^−11
single step mutation frequency (S. pyogenes [2]; [16]): <7.7 × 10^−11
single step mutation frequency (S. pyogenes [2]; [17]): <7.7 × 10^−11
MIC Range (M. fermentans): ≦0.008-0.063 μg/mL
MIC50 (M. fermentans): 0.016 µg/mL (≈ 0.0376 µM)
MIC90 (M. fermentans): 0.031 µg/mL (≈ 0.0729 µM)
single step mutation frequency (S. pneumoniae [3]; [18]): <3.8 × 10^−10
single step mutation frequency (S. pneumoniae [3]; [19]): <3.8 × 10^−10
single step mutation frequency (S. pneumoniae [3]; [20]): <3.8 × 10^−10
single step mutation frequency (S. pneumoniae [3]; [21]): 7.3 × 10^−7
single step mutation frequency (S. pneumoniae [3]; [22]): 5.5 × 10^−7
single step mutation frequency (S. pneumoniae [3]; [23]): 5.6 × 10^−7
single step mutation frequency (S. pneumoniae [3]; strain 2686 Macrolide-R [L4 mutation], 2 × MIC): <1.2 × 10^−9
single step mutation frequency (S. pneumoniae [3]; strain 2686 Macrolide-R [L4 mutation], 4 × MIC): <1.2 × 10^−9
single step mutation frequency (S. pneumoniae [3]; strain 2686 Macrolide-R [L4 mutation], 8 × MIC): <1.2 × 10^−9
single step mutation frequency (S. pneumoniae [3]; strain 3009 Macrolide-R [23S rRNA mutation], 2 × MIC): 1.7 × 10^−4
single step mutation frequency (S. pneumoniae [3]; strain 3009 Macrolide-R [23S rRNA mutation], 4 × MIC): 7.3 × 10^−9
single step mutation frequency (S. pneumoniae [3]; strain 3009 Macrolide-R [23S rRNA mutation], 8 × MIC): <1.2 × 10^−10
single step mutation frequency (S. pneumoniae [3]; [24]): <2.4 × 10^−10
single step mutation frequency (S. pneumoniae [3]; [25]): <2.4 × 10^−10
single step mutation frequency (S. pneumoniae [3]; [26]): <2.4 × 10^−10
single step mutation frequency (S. pneumoniae [3]; [27]): <2.9 × 10^−8
single step mutation frequency (S. pneumoniae [3]; [28]): <2.9 × 10^−8
single step mutation frequency (S. pneumoniae [3]; [29]): <2.9 × 10^−8

CC[C@H]1OC(=O)[C@H](C)[C@@H](O[C@H]2C[C@@](C)(OC)[C@@H](O)[C@H](C)O2)[C@H](C)[C@@H](O[C@@H]2O[C@H](C)C[C@H](N(C)C)[C@H]2O)[C@](C)(OC)C[C@@H](C)C(=O)[C@H](C)[C@@H](O)[C@]1(C)O [CLR, clarithromycin]
average log10 CFU/gram of abscess (S. pneumoniae [4]; 24 hours): ~5.5 log10 CFU/gram
average log10 CFU/gram of abscess (S. pneumoniae [4]; 48 hours): ~5.5 log10 CFU/gram
log decrease of CFU from untreated mice (S. pneumoniae [4]; abscess, 10 mg/Kg QD dose): 1.5 log10
MIC (N. meningitidis): 0.015 to 0.25 µg/mL (≈ 0.0201 to 0.334 µM)
MIC50 (N. meningitidis): 0.03 µg/mL (≈ 0.0401 µM)
MIC90 (N. meningitidis): 0.12 µg/mL (≈ 0.16 µM)
MIC (S. pneumoniae [5]; S. pneumoniae (macrolide susceptible)): > 16 µg/mL
MIC (S. pneumoniae [5]; S. pneumoniae (mefR), read-out: MIC): 0.5 µg/mL
MIC (S. pneumoniae [5]; S. pneumoniae serotype 19A, read-out: MIC): > 16 µg/mL
Dose for 1 log10 Reduction from 24 hour controls (S. pneumoniae [6]; S. pneumoniae 1629): 4.5 mg/Kg
Dose for 3 log10 Reduction from 24 hour controls (S. pneumoniae [6]; S. pneumoniae 1629): 13.5 mg/Kg
Dose for 1 log10 Reduction from 24 hour controls (S. pneumoniae [6]; S. pneumoniae 6303): 5.5 mg/Kg
Dose for 2 log10 Reduction from 24 hour controls (S. pneumoniae [6]; S. pneumoniae 6303): 9.2 mg/Kg
Dose for 3 log10 Reduction from 24 hour controls (S. pneumoniae [6]; S. pneumoniae 6303): 14.0 mg/Kg
MIC90 (S. pneumoniae [1]): > 32 µg/mL
Mutant selection frequencies (S. pyogenes [2]; at 2×MIC): <1.0×10^−10-1.7×10^−7
Mutant selection frequencies (S. pyogenes [2]; at 8×MIC): <1.0×10^−10-5.0×10^−9
single step mutation frequency (S. pyogenes [2]; [9]): <3.3 × 10^−10
single step mutation frequency (S. pyogenes [2]; [10]): <3.3 × 10^−10
single step mutation frequency (S. pyogenes [2]; [11]): <3.3 × 10^−10
single step mutation frequency (S. pyogenes [2]; [12]): 1.7 × 10^−7
single step mutation frequency (S. pyogenes [2]; [13]): 1.0 × 10^−7
single step mutation frequency (S. pyogenes [2]; [14]): 5.0 × 10^−9
single step mutation frequency (S. pyogenes [2]; [15]): <1.0 × 10^−10
single step mutation frequency (S. pyogenes [2]; [16]): <1.0 × 10^−10
single step mutation frequency (S. pyogenes [2]; [17]): <1.0 × 10^−10
MIC (S. pyogenes [7]; S. pyogenes (erythromycin R)): 1 µg/mL
MIC (S. pyogenes [7]; S. pyogenes (macrolide susceptible)): 0.015 µg/mL
Mutant selection frequencies (S. pneumoniae [3]; S. pneumoniae, at 2×MIC): <1.0×10^−9-5.0×10^−7
single step mutation frequency (S. pneumoniae [3]; [18]): 1.1 × 10^−9
single step mutation frequency (S. pneumoniae [3]; [19]): <1.2 × 10^−10
single step mutation frequency (S. pneumoniae [3]; [20]): <1.2 × 10^−10
single step mutation frequency (S. pneumoniae [3]; [21]): <3.1 × 10^−9
single step mutation frequency (S. pneumoniae [3]; [22]): <3.1 × 10^−9
single step mutation frequency (S. pneumoniae [3]; [23]): <3.1 × 10^−9
single step mutation frequency (S. pneumoniae [3]; [24]): 5.0 × 10^−7
single step mutation frequency (S. pneumoniae [3]; [25]): <5.0 × 10^−10
single step mutation frequency (S. pneumoniae [3]; [26]): <5.0 × 10^−10
single step mutation frequency (S. pneumoniae [3]; [27]): <1.0 × 10^−9
single step mutation frequency (S. pneumoniae [3]; [28]): <1.0 × 10^−9
single step mutation frequency (S. pneumoniae [3]; [29]): <1.0 × 10^−9
PD50 (S. aureus; MRSA): 5.0 mg/kg
PD50 (S. aureus; MRSA 300 (CA)): 19.5 mg/kg
PD50 (S. aureus; S. aureus, single oral dose 1 hr post infection): 22.7 mg/kg

CC[C@H]1OC(=O)[C@H](C)[C@@H](O[C@H]2C[C@@](C)(OC)[C@@H](O)[C@H](C)O2)[C@H](C)[C@@H](O[C@@H]2O[C@H](C)C[C@H](N(C)C)[C@H]2O)[C@](C)(O)C[C@@H](C)CN(C)[C@H](C)[C@@H](O)[C@]1(C)O [AZI, azithromycin]
MIC (S. pyogenes [8]; MAC-R S. pyogenes 3029): (>64)
MIC50 (S. pyogenes [8]; S. pyogenes TEL R, 10 strains): > 32 µg/mL
MIC90 (S. pyogenes [8]; S. pyogenes TEL R, 10 strains): > 32 µg/mL
MIC50 (S. pyogenes [8]; S. pyogenes TEL S, 30 strains): > 32 µg/mL
MIC90 (S. pyogenes [8]; S. pyogenes TEL S, 30 strains): > 32 µg/mL
% Susc. (N. meningitidis; CLSI (M100-S19, 2009) criteria): 100.0%
MIC (N. meningitidis): 0.015 to 0.12 µg/mL (≈ 0.02 to 0.16 µM)
MIC50 (N. meningitidis): 0.06 µg/mL (≈ 0.0801 µM)
MIC90 (N. meningitidis): 0.12 µg/mL (≈ 0.16 µM)
MIC Range (U. parvum): 0.5 to 4 µg/mL
MIC50 (U. parvum; Ureaplasma parvum, read-out: MIC50): 2 µg/mL (≈ 2.67 µM)
MIC90 (U. parvum; Ureaplasma parvum, read-out: MIC90): 4 µg/mL (≈ 5.34 µM)
MIC90 (S. pneumoniae [1]): > 16 µg/mL
single step mutation frequency (S. pyogenes [2]; [15]): <1.0 × 10^−10
single step mutation frequency (S. pyogenes [2]; [16]): <1.0 × 10^−10
single step mutation frequency (S. pyogenes [2]; [17]): <1.0 × 10^−10
MIC50 (M. fermentans): 0.5 µg/mL (≈ 0.668 µM)
MIC90 (M. fermentans): 0.5 µg/mL (≈ 0.668 µM)
single step mutation frequency (S. pneumoniae [3]; [18]): 7.2 × 10^−9
single step mutation frequency (S. pneumoniae [3]; [19]): <1.9 × 10^−10
single step mutation frequency (S. pneumoniae [3]; [20]): <1.9 × 10^−10
single step mutation frequency (S. pneumoniae [3]; [21]): <2.0 × 10^−10
single step mutation frequency (S. pneumoniae [3]; [22]): <2.0 × 10^−10
single step mutation frequency (S. pneumoniae [3]; [23]): <2.0 × 10^−10
single step mutation frequency (S. pneumoniae [3]; [27]): <2.0 × 10^−10
single step mutation frequency (S. pneumoniae [3]; [28]): <2.0 × 10^−10
single step mutation frequency (S. pneumoniae [3]; [29]): <2.0 × 10^−10
